Reference: patent publication US10112940B2, “Histone demethylase inhibitors” (Celgene Quanticel Research, Inc., priority 2014, dated 2018)

Columns and labels:
JMJD2C = JMJD2C (Homo sapiens (Human), UniProt Q9H3R0); assay: JMJD2C in vitro enzyme inhibition assay (TR-FRET); format: biochemical; conditions: 0.3 nM JMJD2C, 300 nM H3K9me3-biotin peptide, 2 μM alpha-ketoglutaric acid, 30 minutes
Method: This assay determines the ability of a test compound to inhibit JMJD2C demethylase activity. Baculovirus expressed JMJD2C (GenBank Accession #BC143571, AA 2-372) was purchased from BPS Bioscience (Cat#50105).
The ability of test compounds to inhibit the activity of JMJD2C was determined in 384-well plate format under the following reaction conditions: 0.3 nM JMJD2C, 300 nM H3K9me3-biotin labeled peptide (Anaspec cat #64360), 2 μM alpha-ketoglutaric acid in assay buffer of 50 mM HEPES, pH7.3, 0.005% Brij35, 0.5 mM TCEP, 0.2 mg/ml BSA, 50 μM sodium L-ascorbate, and 2 μM ammonium iron(II) sulfate. Reaction product was determined quantitatively by TR-FRET after the addition of detection reagent Phycolink Streptavidin-allophycocyanin (Prozyme) and Europium-anti-di-methylated histone H3 lysine 9 (H3K9me2) antibody (PerkinElmer) in the presence of 5 mM EDTA in LANCE detection buffer (PerkinElmer) at a final concentration of 50 nM and 1 nM, respectively.
The assay reaction was initiated by the following: 2 μl of the mixture of 900 nM H3K9me3-biotin labeled peptide and 6 μM alpha-ketoglutaric acid with 2 μl of 11-point serial diluted inhibitor in 3% DMSO were added to each well of the plate, followed by the addition of 2 μl of 0.9 nM JMJD2C to initiate the reaction. The reaction mixture was incubated at room temperature for 30 minutes, and terminated by the addition of 6 μl of 5 mM EDTA in LANCE detection buffer containing 100 nM Phycolink Streptavidin-allophycocyanin and 2 nM Europium-anti-H3K9me2 antibody. Plates were read by EnVisionMultilabel Reader in TR-FRET mode (excitation at 320 nm, emission at 615 nm and 665 nm) after 1 hour incubation at room temperature. A ratio was calculated (665/615) for each well and fitted to determine inhibition constant (IC50).
The ability of the compounds disclosed herein to inhibit demethylase activity was quantified and the respective IC50 value was determined. Table 3 provides the IC50 values of various compounds disclosed herein.

[1] = test system: KYSE-150 esophageal carcinoma cell line; assay: In vitro cell-based assay: BrdU incorporation cell proliferation ELISA; set-up: species or system human; conditions: Homo sapiens, KYSE-150 cells, 168 hours compound incubation, read-out: Cellular IC50
Method: Cell lines tested include the JMJD2C gene amplified cell line KYSE-150. This is a quantitative ELISA assay measuring DNA incorporation of BrdU during S-phase as a direct readout of cellular proliferation.
Assay Principle: This is a colorimetric immunoassay for the quantification of cell proliferation. Cells treated for 168 hours with test compounds are assayed for their ability to go through S-phase as a measure of their proliferative potential.
Assay Method: The human KYSE-150 (SMAD4 mut, TP53 mut) esophageal carcinoma cell line was seeded at 2,000 cells/well on a 96-well tissue culture treated plate. After an overnight incubation, cells were treated with compound in an 11-point dilution series with final concentrations ranging from 100 μM to 2 nM. Cells were then incubated in the presence of compound for 168 hours. After compound incubation the cells were assayed using a BrdU Cell Proliferation ELISA (Roche). The cells were first incubated with BrdU labeling reagent for 2 hours. After 2 hours, the BrdU incorporated cells were fixed and denatured, probed with an anti-BrdU-Peroxidase antibody for 1.5 hours and washed. Finally, a tetramethylbenzidine peroxidase substrate was added to each well for 15 minutes followed by a H2SO4 stop solution. The plate was read at 450 nm, and the raw optical density data was transferred into XLFit (IDBS) for IC50 calculation using the formula: fit=(D+((Vmax*(x^n))/((x^n)+(Km^n))))
Table 4 provides the cellular IC50 values of various compounds disclosed herein.

JMJD2C, sequence (Q9H3R0 2-372): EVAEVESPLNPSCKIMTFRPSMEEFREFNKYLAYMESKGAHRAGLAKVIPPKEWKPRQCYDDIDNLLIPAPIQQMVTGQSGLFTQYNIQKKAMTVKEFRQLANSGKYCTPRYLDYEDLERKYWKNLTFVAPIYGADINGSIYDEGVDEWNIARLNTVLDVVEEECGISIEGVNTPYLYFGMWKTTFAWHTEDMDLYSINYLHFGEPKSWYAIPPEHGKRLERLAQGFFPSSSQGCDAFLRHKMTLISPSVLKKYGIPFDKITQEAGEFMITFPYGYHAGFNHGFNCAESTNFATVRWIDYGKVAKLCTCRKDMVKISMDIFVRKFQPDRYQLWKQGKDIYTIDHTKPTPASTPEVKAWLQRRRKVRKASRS

Row | SMILES | IC50 (JMJD2C) [nM] | IC50 [1] [nM]
1 | CN(c1ccc(Oc2nc(O)c3ccncc3n2)cc1)c1ccnc(N2CCOCC2)c1 [Example 61, 2-[4-[methyl-(2-morpholin-4-ylpyridin-4-yl)amino]phenoxy]pyrido[3,4-d]pyrimidin-4-ol] | ≤ 100 | > 10000
2 | CCc1ccc(N(C)c2ccc(Oc3nc(O)c4ccncc4n3)cc2)cc1OCCOC [Example 66, 2-[4-[4-ethyl-3-(2-methoxyethoxy)-N-methylanilino]phenoxy]pyrido[3,4-d]pyrimidin-4-ol] | 1000 to 10000 | 1000 to 10000
3 | COCC(C)(C)c1ccc(N(C)c2ccc(Oc3nc(O)c4ccncc4n3)cc2)cc1 [Example 67, 2-[4-[4-(1-methoxy-2-methylpropan-2-yl)-N-methylanilino]phenoxy]pyrido[3,4-d]pyrimidin-4-ol] | 1000 to 10000 | ≤ 100
4 | CN(c1ccc(Oc2nc(O)c3ccncc3n2)cc1)c1ccc(C(C)(C)CO)cc1 [Example 68, 2-[4-[4-(1-hydroxy-2-methylpropan-2-yl)-N-methylanilino]phenoxy]pyrido[3,4-d]pyrimidin-4-ol] | 100 to 1000 | 100 to 1000
5 | CCCc1ccc(N(C)c2ccc(Oc3nc(O)c4ccncc4n3)cc2)cc1 [Example 69, 2-[4-(N-methyl-4-propylanilino)phenoxy]pyrido[3,4-d]pyrimidin-4-ol] | 1000 to 10000 | ≤ 100
6 | CN(c1ccc(OCC(F)(F)F)cc1)c1ccc(Oc2nc(O)c3ccncc3n2)cc1 [Example 73, 2-[4-[N-methyl-4-(2,2,2-trifluoroethoxy)anilino]phenoxy]pyrido[3,4-d]pyrimidin-4-ol] | 100 to 1000 | ≤ 100
7 | CC(C)COc1ccc(N(C)c2ccc(Oc3nc(O)c4ccncc4n3)cc2)cc1 [Example 74, 2-[4-[N-methyl-4-(2-methylpropoxy)anilino]phenoxy]pyrido[3,4-d]pyrimidin-4-ol] | 1000 to 10000 | ≤ 100

Second part, the compound after the results:

Row | IC50 (JMJD2C) [nM] | IC50 [1] [nM] | SMILES
8 | ≤ 100 | > 10000 | CCc1ccc(N(C)c2ccc(Oc3nc(O)c4ccncc4n3)cc2)cc1N1CCOCC1 [Example 59, 2-[4-(4-ethyl-N-methyl-3-morpholin-4-ylanilino)phenoxy]pyrido[3,4-d]pyrimidin-4-ol]
9 | ≤ 100 | > 10000 | CCc1ccc(N(C)c2ccc(Oc3nc(O)c4ccncc4n3)cc2)cc1N1CCN(C)CC1 [Example 60, 2-[4-[4-ethyl-N-methyl-3-(4-methylpiperazin-1-yl)anilino]phenoxy]pyrido[3,4-d]pyrimidin-4-ol]
10 | 100 to 1000 | 1000 to 10000 | CN(CC1CCc2ccccc21)c1ccc(Oc2nc(O)c3ccncc3n2)cc1 (stereo not drawn) [Example 62, 2-[4-[2,3-dihydro-1H-inden-1-ylmethyl(methyl)amino]phenoxy]pyrido[3,4-d]pyrimidin-4-ol]
11 | 100 to 1000 | 100 to 1000 | CN(c1ccc(Oc2nc(O)c3ccncc3n2)cc1)c1ccc(C(C)(C)O)cc1 [Example 64, 2-[4-[4-(2-hydroxypropan-2-yl)-N-methylanilino]phenoxy]pyrido[3,4-d]pyrimidin-4-ol]
12 | ≤ 100 | > 10000 | CCc1ccc(N(C)c2ccc(Oc3nc(O)c4ccncc4n3)cc2)cc1OCCN(C)C [Example 65, 2-[4-[3-[2-(dimethylamino)ethoxy]-4-ethyl-N-methylanilino]phenoxy]pyrido[3,4-d]pyrimidin-4-ol]
13 | ≤ 100 | > 10000 | CNCC(C)c1ccc(N(C)c2ccc(Oc3nc(O)c4ccncc4n3)cc2)cc1 (stereo not drawn) [Example 70, 2-[4-[N-methyl-4-[1-(methylamino)propan-2-yl]anilino]phenoxy]pyrido[3,4-d]pyrimidin-4-ol]
14 | ≤ 100 | 1000 to 10000 | CC(CCN)c1ccc(N(C)c2ccc(Oc3nc(O)c4ccncc4n3)cc2)cc1 (stereo not drawn) [Example 71, 2-[4-[4-(4-aminobutan-2-yl)-N-methylanilino]phenoxy]pyrido[3,4-d]pyrimidin-4-ol]
15 | ≤ 100 | > 10000 | CNCCC(C)c1ccc(N(C)c2ccc(Oc3nc(O)c4ccncc4n3)cc2)cc1 (stereo not drawn) [Example 72, 2-[4-[N-methyl-4-[4-(methylamino)butan-2-yl]anilino]phenoxy]pyrido[3,4-d]pyrimidin-4-ol]
